Results reported in publication PMC6534212, “Synthesis and biological evaluation of 3–(4-aminophenyl)-coumarin derivatives as potential anti-Alzheimer’s disease agents” (Journal of Enzyme Inhibition and Medicinal Chemistry, 2019).
Entries after “also recorded” stand apart in the source; their conditions may differ.

Assays:
BuChE from equine serum = target: T1, BuChE from equine serum (Equus caballus, UniProt P81908); assay: biochemical; assay type: biochemical; conditions: for IC50: BuChE from equine serum, mean ± SD (n=3); for BuChE inhibitory activity (in words): verbal summary of Table 2, comparison with donepezil
T1 construct: Butyrylcholinesterase (BuChE, from equine serum, Aladdin, Shanghai, China); purchased Aladdin, Shanghai, China; host or cells: equine serum
Description: (§1) In the experiment, 0.05 mol/L phosphate buffered saline (PBS) of pH 8.0 was prepared first, and then the following solutions were prepared: 1.5 mmol/L Acetylthiocholine iodide (ATChI); 0.75 mmol/L 5, 5'-Dithiobis-(2-nitrobenzoic acid) (DTNB, Sigma Aldrich, St. Louis, MO); 0.2 U/mL Acetylcholinesterase (AChE, from […], Macklin); 0.5 U/mL Butyrylcholinesterase (BuChE, from equine serum, Aladdin, Shanghai, China); 1.5 mmol/L S-Butyrylthiocholine iodide (BTChI, Sigma Aldrich, St. Louis, MO). 4% sodium dodecyl sulphate (SDS) was prepared with secondary water. […] All solutions were stored in a refrigerator at 4 °C.
(§2) The AChE/BuChE inhibitory activity of the 3–(4-aminophenyl)-coumarin derivatives was determined by the method of Ellaman[28] with slight modifications. The experiment was divided into control group, sample blank group and sample group. Take a series of test tubes, the reagents were loaded in test tubes at the dose of Table 6. After incubation at 37 °C for 20 min, quickly add 1 mL of 4% SDS to stop the reaction. […] All experiments were run in triplicate. The absorbance was determined by UV spectrophotometer, and the inhibition rate of AChE and the IC50 value of each sample were calculated according to the formula. Inhibition rate % = {[(AC−AS)−ASB]/AC} ×100%, where AC (no sample added) is the absorbance of control group; AS is the absorbance of sample group; ASB (add sample solution but no substrate ATChI added) is the absorbance of sample blank group.
The method for determining BuChE is the same as the method for measuring AChE. The sample can be added with reference to Table 6, AChE is changed to BuChE, and the substrate ATChI is changed to substrate BTChI. The order of loading and the amount of loading are the same as Table 6. The absorbance was determined by UV spectrophotometer, and the inhibition rate of BuChE and the IC50 value of each sample were calculated according to the formula. The formula used is the same as AChE.

[1] = target: T2, AChE from Electrophorus electricus (Electrophorus electricus, UniProt O42275); assay: biochemical; assay type: biochemical; conditions: for IC50: AChE from Electrophorus electricus, mean ± SD (n=3); for Selectivity AChE/BuChE (in words): verbal summary of SI; for AChE inhibitory activity (in words): verbal summary of Table 2
T2 construct: purchased Macklin
Description: as §1, §2

[2] = system: aluminium trichloride-induced zebrafish juveniles; assay: Effects of compounds on aluminium trichloride-induced behavioural inhibition of zebrafish juveniles (Zebrobox); conditions: for Total movement distance: mean ± SE, n=8; for Effect on behavioural inhibition of zebrafish induced by aluminium trichloride (in words): compared with the model group
Description: The most suitable modelling concentrations were chosen, and then the effect of the compounds on the behaviour of the aluminium trichloride-induced zebrafish juveniles was explored.
The 72 hpf zebrafish were placed in a petri dish, and the normal developing juveniles were selected under a microscope in a 12-well plate. […] The continuous drug solution was exposed for 3 days. […] Each well was juvenile fish developed to 72 h post-exposure (hpe) and added 0.5 mL of culture water and 8 juveniles were set in each experimental group. The well plate was placed in the dark box of the zebrafish behaviour analysis system. The fish was first adapted to 10 min at the beginning of the experiment. The trajectories of the juveniles in each group were collected using zeblab software for 10 min, recorded every 5 min, and exported by software. Then calculate the total distance of each group of zebrafish juveniles.
The zebrafish with 72 hpf after fertilisation is placed in a petri dish. Under normal conditions, the normal developing juvenile fish are selected in a 12-well plate, and 15 juveniles per hole are set. Control group (0.5% DMSO), model group (5.0 mg/L AlCl3), 5.0 mg/L AlCl3 + test compound 5 μg/mL group, 5.0 mg/L AlCl3 + test compound 10 μg/mL group, 5.0 mg/L AlCl3 + test compound 50 μg/mL group, 5.0 mg/L AlCl3 + test compound 100 μg/mL group, three duplicate wells were set at each concentration. After the administration, the zebrafish was placed in a constant temperature incubator at 28 °C to continue the culture for 3 days. Changing the liquid (aquaculture water) every 24 h and removing dead young fish.

[3] = 5 mg/L compound + 5.0 mg/L AlCl3, 3 days
[4] = 10 mg/L compound + 5.0 mg/L AlCl3, 3 days
[5] = 50 mg/L compound + 5.0 mg/L AlCl3, 3 days
[6] = 100 mg/L compound + 5.0 mg/L AlCl3, 3 days

T2 sequence (O42275 24-633): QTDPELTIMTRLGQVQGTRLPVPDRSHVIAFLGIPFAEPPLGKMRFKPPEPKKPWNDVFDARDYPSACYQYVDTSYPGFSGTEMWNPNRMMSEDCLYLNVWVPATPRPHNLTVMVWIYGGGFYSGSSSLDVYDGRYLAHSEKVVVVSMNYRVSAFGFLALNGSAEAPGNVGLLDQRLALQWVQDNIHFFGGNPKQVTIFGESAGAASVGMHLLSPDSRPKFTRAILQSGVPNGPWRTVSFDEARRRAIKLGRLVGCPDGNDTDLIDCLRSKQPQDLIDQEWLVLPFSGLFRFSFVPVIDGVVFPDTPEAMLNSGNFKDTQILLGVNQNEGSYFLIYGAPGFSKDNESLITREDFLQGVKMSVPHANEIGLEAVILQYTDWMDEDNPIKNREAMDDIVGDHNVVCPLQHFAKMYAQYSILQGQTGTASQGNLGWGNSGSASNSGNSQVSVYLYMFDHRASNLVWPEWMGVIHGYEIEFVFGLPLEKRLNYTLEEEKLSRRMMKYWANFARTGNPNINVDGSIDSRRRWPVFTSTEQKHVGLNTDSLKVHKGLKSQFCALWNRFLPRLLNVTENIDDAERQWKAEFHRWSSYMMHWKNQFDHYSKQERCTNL
T1 sequence (P81908 whole entry): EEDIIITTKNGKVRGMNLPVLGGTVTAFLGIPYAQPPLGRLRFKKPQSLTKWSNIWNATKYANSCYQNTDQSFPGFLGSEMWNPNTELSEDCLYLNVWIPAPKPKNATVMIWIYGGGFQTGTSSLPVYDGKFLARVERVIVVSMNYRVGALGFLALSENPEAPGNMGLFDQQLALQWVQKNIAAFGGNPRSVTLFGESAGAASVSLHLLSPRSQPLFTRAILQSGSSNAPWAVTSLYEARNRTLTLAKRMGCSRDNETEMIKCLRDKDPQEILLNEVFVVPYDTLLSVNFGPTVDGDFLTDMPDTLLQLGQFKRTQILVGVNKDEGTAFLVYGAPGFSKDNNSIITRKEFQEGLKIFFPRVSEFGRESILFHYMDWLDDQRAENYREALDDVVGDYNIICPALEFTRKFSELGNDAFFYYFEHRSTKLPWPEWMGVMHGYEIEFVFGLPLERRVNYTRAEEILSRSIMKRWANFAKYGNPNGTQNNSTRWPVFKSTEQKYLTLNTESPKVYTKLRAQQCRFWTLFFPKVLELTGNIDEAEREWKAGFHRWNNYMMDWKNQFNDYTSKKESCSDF

Structure (SMILES) | IC50 (BuChE from equine serum) [µM] | IC50 [1] [µM] | Selectivity AChE/BuChE (in words) [1] | AChE inhibitory activity (in words) [1] | BuChE inhibitory activity (in words) (BuChE from equine serum) | SI: selectivity index (IC50 BuChE/IC50 AChE) [1] | Total movement distance [2, 3] [cm] | Total movement distance [2, 4] [cm] | Total movement distance [2, 5] [cm] | Total movement distance [2, 6] [cm] | Effect on behavioural inhibition of zebrafish induced by aluminium trichloride (in words) [2] | BuChE inhibitory activity relative to donepezil (BuChE from equine serum; more active than donepezil) [times]
O=C(Nc1ccc(-c2cc3ccc(O)cc3oc2=O)cc1)c1cccc(F)c1 [Compound 4a, 3-[4-(3-fluoro-benzoylamino)-phenyl]-7-hydroxy-coumarin] | 3.89 ± 0.955 | > 50 | highly selective for BuChE | no inhibitory activity |  |  |  |  |  |  |  | 
O=C(Nc1ccc(-c2cc3ccc(O)cc3oc2=O)cc1)c1ccc(F)cc1 [Compound 4b, 3-[4-(4-fluoro-benzoylamino)-phenyl]-7-hydroxy-coumarin] | 2.44 ± 0.035 | > 50 | highly selective for BuChE | no inhibitory activity | better than donepezil | <0.050 |  |  |  |  |  | 
Cc1ccc(C(=O)Nc2ccc(-c3cc4ccc(O)cc4oc3=O)cc2)cc1 [Compound 4c, 3-[4-(4-methyl-benzoylamino)-phenyl]-7-hydroxy-coumarin] | 15.6 ± 1.82 | > 50 |  | no inhibitory activity |  |  |  |  |  |  |  | 
O=C(Nc1ccc(-c2cc3ccc(O)cc3oc2=O)cc1)c1ccc(CCl)cc1 [Compound 4d, 3-[4-(4-chloromethyl-benzoylamino)-phenyl]-7-hydroxy-coumarin] | 8.9 ± 1.18 | 47.2 ± 3.57 |  |  |  | 0.189 |  |  |  |  |  | 
Cc1cccc(C(=O)Nc2ccc(-c3cc4ccc(O)cc4oc3=O)cc2)c1 [Compound 4e, 3-[4-(3-methyl-benzoylamino)-phenyl]-7-hydroxy-coumarin] | 10.6 ± 0.132 | > 50 |  | no inhibitory activity |  | <0.211 |  |  |  |  |  | 
O=C(Nc1ccc(-c2cc3ccc(O)cc3oc2=O)cc1)c1cccc(Cl)c1 [Compound 4f, 3-[4-(3-chloro-benzoylamino)-phenyl]-7-hydroxy-coumarin] | 2.56 ± 0.275 | 1.94 ± 0.141 |  | moderate to excellent AChE inhibitory activity | better than donepezil | 1.319 | 205.7 ± 4.5 | 223.2 ± 16.4 | 236 ± 11.5 | 244.8 ± 13.6 | certain therapeutic effects; also recorded: could alleviate the behavioural inhibition symptoms | 
O=C(Nc1ccc(-c2cc3ccc(O)cc3oc2=O)cc1)c1ccccc1F [Compound 4g, 3-[4-(2-fluoro-benzoylamino)-phenyl]-7-hydroxy-coumarin] | 24.5 ± 0.535 | > 50 |  | no inhibitory activity |  | <0.489 |  |  |  |  |  | 
O=C(Nc1ccc(-c2cc3ccc(O)cc3oc2=O)cc1)c1ccc(Cl)cc1 [Compound 4h, 3-[4-(4-chloro-benzoylamino)-phenyl]-7-hydroxy-coumarin] | 3.88 ± 0.191 | > 50 | highly selective for BuChE | no inhibitory activity |  | <0.078 |  |  |  |  |  | 
Cc1cc(C)cc(C(=O)Nc2ccc(-c3cc4ccc(O)cc4oc3=O)cc2)c1 [Compound 4i, 3-[4-(3,5-dimethyl-benzoylamino)-phenyl]-7-hydroxy-coumarin] | 2.26 ± 0.225 | > 50 | highly selective for BuChE | no inhibitory activity | better than donepezil | <0.045 |  |  |  |  |  | 
COc1cccc2cc(-c3ccc(NC(=O)c4cccc(F)c4)cc3)c(=O)oc12 [Compound 4j, 3-[4-(3-fluoro-benzoylamino)-phenyl]-8-methoxy-coumarin] | 0.905 ± 0.081 | 4.16 ± 0.161 |  | moderate to excellent AChE inhibitory activity | better than donepezil | 0.217 | 208.8 ± 9.6 | 226 ± 10.7 | 231.8 ± 13.2 | 225.7 ± 13.4 | certain therapeutic effects; also recorded: could alleviate the behavioural inhibition symptoms | 
COc1cccc2cc(-c3ccc(NC(=O)c4ccc(F)cc4)cc3)c(=O)oc12 [Compound 4k, 3-[4-(4-fluoro-benzoylamino)-phenyl]-8-methoxy-coumarin] | 0.559 ± 0.017 | 28 ± 2.56 | highly selective for BuChE |  | better than donepezil | 0.020 | 194.9 ± 5.5 | 186.7 ± 7.7 | 181.8 ± 6.9 | 205.7 ± 9.5 |  | 5
COc1cccc2cc(-c3ccc(NC(=O)c4cccc(Cl)c4)cc3)c(=O)oc12 [Compound 4n, 3-[4-(3-chloro-benzoylamino)-phenyl]-8-methoxy-coumarin] | 0.951 ± 0.159 | > 50 |  |  | better than donepezil | <0.020 |  |  |  |  |  | 
COc1cccc2cc(-c3ccc(NC(=O)c4cccc(C)c4)cc3)c(=O)oc12 [Compound 4o, 3-[4-(3-methyl-benzoylamino)-phenyl]-8-methoxy-coumarin] | > 50 | 8.26 ± 0.581 | highly selective for AChE | moderate to excellent AChE inhibitory activity |  | >6.054 |  |  |  |  |  | 
COc1cccc2cc(-c3ccc(NC(=O)c4ccccc4F)cc3)c(=O)oc12 [Compound 4p, 3-[4-(2-fluoro-benzoylamino)-phenyl]-8-methoxy-coumarin] | 16 ± 0.475 | 48.9 ± 2.32 |  |  |  | 0.326 |  |  |  |  |  | 
COc1ccccc1C(=O)Nc1ccc(-c2cc3cccc(OC)c3oc2=O)cc1 [Compound 4q, 3-[4-(2-methoxy-benzoylamino)-phenyl]-8-methoxy-coumarin] | > 50 | 48.2 ± 3.13 |  |  |  | >1.037 |  |  |  |  |  | 
O=C(Nc1ccc(-c2cc3ccc(O)c(O)c3oc2=O)cc1)c1ccc(CCl)cc1 [Compound 4s, 3-[4-(4-Chloromethyl-benzoylamino)-phenyl]-7,8-dihydroxy-coumarin] | > 50 | 48.2 ± 2.69 |  |  |  | >1.037 |  |  |  |  |  | 
COc1cccc2cc(-c3ccc(NC(=O)c4ccco4)cc3)c(=O)oc12 [Compound 5b, 3-[4-(furan-2-formylamino)-phenyl]-8-methoxy-coumarin] | 4.62 ± 0.055 | 47.1 ± 1.59 |  |  |  | 0.098 |  |  |  |  |  | 
O=C(Nc1ccc(-c2cc3ccc(O)cc3oc2=O)cc1)c1cccc2ccccc12 [Compound 6a, 3-[4-(1-naphthoylamino)-phenyl]-7-hydroxy-coumarin] | > 50 | 19.1 ± 0.981 |  |  |  | >2.612 |  |  |  |  |  | 
COc1cccc2cc(-c3ccc(NC(=O)c4cccc5ccccc45)cc3)c(=O)oc12 [Compound 6b, 3-[4-(1-naphthoylamino)-phenyl]-8-methoxy-coumarin] | > 50 | > 50 |  |  |  |  |  |  |  |  |  | 
O=C(Nc1ccc(-c2cc3ccc(O)cc3oc2=O)cc1)c1ccc2ccccc2c1 [Compound 7a, 3-[4-(2-naphthoylamino)-phenyl]-7-hydroxy-coumarin] | 2.07 ± 0.045 | > 50 |  |  | better than donepezil |  |  |  |  |  |  | 
COc1cccc2cc(-c3ccc(NC(=O)c4ccc(Cl)nc4)cc3)c(=O)oc12 [Compound 7c, 3-[4-(6-chloro-N-nicotinamide)-phenyl]-8-methoxy-coumarin] | 3.38 ± 0.342 | 19.2 ± 1.64 |  |  |  | 0.176 |  |  |  |  |  | 
